Measured values taken from patent EP0121972A2, “N-aryl-alpha-amino-carboxamides” (JANSSEN PHARMACEUTICA N.V., priority 1983, dated 1984).
Counter-ions that a name gives are not always drawn.

System: multifocal ventricular arrhythmia
Assay: Antiarrhythmic effect in dogs with ventricular arrhythmia after coronary artery ligation
Assay type: in vivo
Conditions: given intravenously; for minimal effective dose: Canis lupus familiaris, iv, lowest effective dose normalizing the cardial rhythm, about 16 hours after ligation of the anterior descendent branch of the left coronary artery, under neuroleptanalgesia, read-out: Antiarrhythmic effects in dogs LED in mg/kg body weight; for Antiarrhythmic effects in dogs duration: duration of action at the lowest effective dose, coronary-ligated dogs
Protocol: The compounds of formula (I) and their pharmaceutically acceptable acid addition salts and possible stereochemically isomeric forms thereof show excellent antiarrhythmic properties and as such they are useful in the normalization of irregular cardial rhythms. The antiarrhythmic effect of the compounds of this invention is clearly illustrated in the following experiment in dogs. The test was carried out under neuroleptanalgesia (1 ml per 10 kg body weight of fentanyl (0.4 mg/ml) and droperidol (20 mg/ml)).
The test compounds were given intravenously after a control period of 30 minutes.

CCN(CC)C1(C(=O)Nc2cc(Cl)ccc2C)CCN(C2CCCC2)CC1 [compound 166, N-(5-chloro-2-methylphenyl)-l-cyclopentyl-4-(diethylamino)-4-piperidinecarboxamide dihydrochloride hemihydrate]
minimal effective dose: 0.63 mg/kg
Antiarrhythmic effects in dogs duration: 200 min

Cc1cccc(C)c1NC(=O)C1(N(C)C)CCN(CCO)CC1 [compound 167, 4-(dimethylamino)-N-(2,6-dimethylphenyl)-1-(2-hydroxyethyl)-4-piperidinecarboxamide]
minimal effective dose: 0.31 mg/kg
Antiarrhythmic effects in dogs duration: 220 min

CCN(C)C1(C(=O)Nc2c(C)cccc2C)CCN(C(C)C(N)=O)CC1 (stereo not shown) [compound 174]
minimal effective dose: 1.25 mg/kg
Antiarrhythmic effects in dogs duration: 120 min

CCNC1(C(=O)Nc2c(C)cccc2C)CCN(C(C)C)CC1 [compound 189, N-(2,6-dimethylphenyl)-4-(ethylamino)-l-(l-methylethyl)-4-piperidinecarboxamide]
minimal effective dose: 0.63 mg/kg
Antiarrhythmic effects in dogs duration: 175 min

Cc1cccc(C)c1NC(=O)C1(N)CCN(C2CCCC2)CC1 [compound 190, 4-amino-l-cyclopentyl-N-(2,6-dimethylphenyl)-4-piperidinecarboxamide]
minimal effective dose: 1.25 mg/kg
Antiarrhythmic effects in dogs duration: 110 min

Cc1cccc(C)c1NC(=O)C1(N(C)C)CCN(CC(O)CN)CC1 (stereo not shown) [compound 191, 1-(3-amino-2-hydroxypropyl)-4-(dimethylamino)-N-(2,6-dimethylphenyl)-4-piperidinecarboxamide]
minimal effective dose: 1.25 mg/kg
Antiarrhythmic effects in dogs duration: 20 min

Cc1cccc(C)c1NC(=O)C1(N(C)C)CCN([C@H]2CC[C@@H](O)C[C@@H]2O)CC1 [compound 202, (+)-[1-(1α,2β,4α)]-1-(2,4-dihydroxycyclohexyl)-4-(dimethylamino)-N-(2,6-dimethylphenyl)-4-piperidinecarboxamide]
minimal effective dose: 0.31 mg/kg
Antiarrhythmic effects in dogs duration: 5 min

CCN1CCC(O)C(N2CCC(C(=O)Nc3c(C)cccc3C)(N(C)C)CC2)C1 (stereo not shown) [compound 212]
minimal effective dose: 0.31 mg/kg
Antiarrhythmic effects in dogs duration: 60 min
